US20230255953A1, “USE OF ROLUPERIDONE IN PREVENTING RELAPSE IN SCHIZOPHRENIA PATIENTS” (Minerva Neurosciences, Inc., priority 2022, published 2023)

System: patients with negative symptoms of schizophrenia
Assay: Integrated analysis of Studies #1 and #2 (pooled ITT): PANSS-derived scores (NSFS, total, positive and negative subscales), DB, OL and whole study
Assay type: in vivo, human
Parameters: key to NSFS Score change from Baseline, Median: change from Baseline in PANSS NSFS points; higher score = more severe
Settings: for NSFS Score change from Baseline, LS mean (SE) / NSFS Score change from Baseline, Mean (SD) / NSFS Score change from Baseline, Median / NSFS Score, Difference (95% CI) in LS mean (vs placebo) / PANSS Negative Subscale Score change from Baseline, LS mean (SE) / PANSS Negative Subscale Score change from Baseline, Mean (SD) / PANSS Negative Subscale Score change from Baseline, Median / PANSS Negative Subscale Score, Difference (95% CI) in LS mean (vs placebo) / PANSS Total Score change from Baseline, LS mean (SE) / PANSS Total Score change from Baseline, Mean (SD) / PANSS Total Score change from Baseline, Median / PANSS Total Score, Difference (95% CI) in LS mean (vs placebo): DB
Protocol: The primary integrated analysis of the efficacy of Roluperidone compared with placebo for the treatment of negative symptoms of schizophrenia is based on the change from Baseline in the PANSS Marder's negative symptoms factor score (in this document referred to as NSFS) to Week 12. Efficacy is also supported by the analysis of change from Baseline in the PSP Total score and the CGI-S to Week 12.
The PANSS was assessed at the time points described in Table 4.
The PANSS-derived endpoints used in these studies and the integrated analyses are described in Table 5A and a summary of the individual PANSS items used by physicians and clinicians to measure the severity of the symptoms in a schizophrenia patient is provided in Table 5B. The scale is divided into three parts, a positive scale, which provides a “PANSS positive subscore”, a negative scale, which provides a “PANSS negative subscore”, and general psychopathology scale. The sum of these three parts provides a PANSS total score, which ranges from 30 to 210 (where higher scores indicate more severe symptoms). (See Kay, S. R., et al. “The positive and negative syndrome scale (PANSS) for schizophrenia,” Schizophr Bulletin, 13(2), 261-276 (1987) and Gopal, S., et al. “Improvement of Negative Symptoms in Schizophrenia with Paliperidone Palmitate 1-Month and 3-Month Long-Acting Injectables: Results from a Phase 3 Non-Inferiority Study” Neuropsychiatric Disease and Treatment, 681-690, DOI: 10.2147/NDT.5226296, both of which are incorporated by reference.)
The Efficacy data from Study Nos. 1 and 2 were pooled. The majority of patients in the pooled ITT population completed the DB period (502 patients overall, 66.3%), with similar rates in each treatment group (placebo: 69.8%, 32 mg Roluperidone: 65.3%, and 64 mg Roluperidone: 63.8%) (Table 12). The majority (62.7%) of those who completed the DB period entered the OL period. The most common reason for discontinuation during the DB period among patients overall was withdrawal of consent (15.6%), followed by adverse events (7.3%) and lack of efficacy (5.4%) (Table 12). […] Approximately twice as many patients in the Roluperidone groups (32 mg: 8.5%; 64 mg: 9.1%) discontinued due to adverse events compared with patients in the placebo group (4.3%). More patients in the placebo group discontinued due to lack of efficacy (6.7%) than in the Roluperidone groups (32 mg: 4.4%; 64 mg: 5.1%). The low number of patients who discontinued due to lack of efficacy or withdrawal of consent probably reflects a low level of worsening of positive symptoms.
The integrated analysis supporting the efficacy of Roluperidone as a treatment for the negative symptoms of schizophrenia in adults is presented below.

## 1H-Isoindol-1-one,2-[ [1-[2-(4-fluorophenyl)-2-oxoethyl]-4-piperidinyl]methyl]-2,3-dihydro-, hydrochloride, hydrate (1:1:2) [Roluperidone]
32 mg and 64 mg groups, OL period incl. 2 weeks after end of treatment, pooled
  Mean NSFS score improvements, persistence in OL period: sustained and continued during the OL period
32 mg, Week 2, pooled ITT
  NSFS Score change from Baseline, LS mean (SE): −1.1 (0.15)
  NSFS Score change from Baseline, Mean (SD): −1.1 (2.15)
  NSFS Score change from Baseline, Median: −1.0
  NSFS Score, Difference (95% CI) in LS mean (vs placebo): −0.2
  PANSS Negative Subscale Score change from Baseline, LS mean (SE): −1.2 (0.14)
  PANSS Negative Subscale Score change from Baseline, Mean (SD): −1.2 (2.11)
  PANSS Negative Subscale Score change from Baseline, Median: −1.0
  PANSS Negative Subscale Score, Difference (95% CI) in LS mean (vs placebo): −0.1
  PANSS Total Score change from Baseline, LS mean (SE): −1.7 (0.44)
  PANSS Total Score change from Baseline, Mean (SD): −1.8 (6.62)
  PANSS Total Score change from Baseline, Median: −2.0
  PANSS Total Score, Difference (95% CI) in LS mean (vs placebo): −0.4
  PANSS Positive Subscale Score change from Baseline, LS mean (SE): 0.3 (0.17)
  PANSS Positive Subscale Score change from Baseline, Mean (SD): 0.2 (2.71)
  PANSS Positive Subscale Score change from Baseline, Median: 0.0
  PANSS Positive Subscale Score, Difference (95% CI) in LS mean (vs placebo): 0.3
32 mg, Week 4, pooled ITT
  NSFS Score change from Baseline, LS mean (SE): −2.0 (0.19)
  NSFS Score change from Baseline, Mean (SD): −2.2 (2.53)
  NSFS Score change from Baseline, Median: −2.0
  NSFS Score, Difference (95% CI) in LS mean (vs placebo): −0.7
  PANSS Negative Subscale Score change from Baseline, LS mean (SE): −2.1 (0.19)
  PANSS Negative Subscale Score change from Baseline, Mean (SD): −2.3 (2.67)
  PANSS Negative Subscale Score change from Baseline, Median: −2.0
  PANSS Negative Subscale Score, Difference (95% CI) in LS mean (vs placebo): −0.6
  PANSS Total Score change from Baseline, LS mean (SE): −3.6 (0.53)
  PANSS Total Score change from Baseline, Mean (SD): −4.4 (7.09)
  PANSS Total Score change from Baseline, Median: −4.0
  PANSS Total Score, Difference (95% CI) in LS mean (vs placebo): −1.6
  PANSS Positive Subscale Score change from Baseline, LS mean (SE): −0.1 (0.18)
  PANSS Positive Subscale Score change from Baseline, Mean (SD): −0.4 (2.49)
  PANSS Positive Subscale Score change from Baseline, Median: 0.0
  PANSS Positive Subscale Score, Difference (95% CI) in LS mean (vs placebo): −0.3
32 mg, Week 8, pooled ITT
  NSFS Score change from Baseline, LS mean (SE): −3.0 (0.23)
  NSFS Score change from Baseline, Mean (SD): −3.2 (3.21)
  NSFS Score change from Baseline, Median: −3.0
  NSFS Score, Difference (95% CI) in LS mean (vs placebo): −0.8
  PANSS Negative Subscale Score change from Baseline, LS mean (SE): −3.1 (0.24)
  PANSS Negative Subscale Score change from Baseline, Mean (SD): −3.2 (3.46)
  PANSS Negative Subscale Score change from Baseline, Median: −3.0
  PANSS Negative Subscale Score, Difference (95% CI) in LS mean (vs placebo): −0.7
  PANSS Total Score change from Baseline, LS mean (SE): −4.9 (0.66)
  PANSS Total Score change from Baseline, Mean (SD): −6.2 (7.89)
  PANSS Total Score change from Baseline, Median: −6.0
  PANSS Total Score, Difference (95% CI) in LS mean (vs placebo): −1.7
  PANSS Positive Subscale Score change from Baseline, LS mean (SE): −0.1 (0.20)
  PANSS Positive Subscale Score change from Baseline, Mean (SD): −0.4 (2.50)
  PANSS Positive Subscale Score change from Baseline, Median: 0.0
  PANSS Positive Subscale Score, Difference (95% CI) in LS mean (vs placebo): −0.3
32 mg, Week 12, pooled ITT
  NSFS Score change from Baseline, LS mean (SE): −3.5 (0.26)
  NSFS Score change from Baseline, Mean (SD): −3.6 (3.08)
  NSFS Score change from Baseline, Median: −4.0
  NSFS Score, Difference (95% CI) in LS mean (vs placebo): −0.8
  PANSS Negative Subscale Score change from Baseline, LS mean (SE): −3.6 (0.27)
  PANSS Negative Subscale Score change from Baseline, Mean (SD): −3.6 (3.37)
  PANSS Negative Subscale Score change from Baseline, Median: −3.0
  PANSS Negative Subscale Score, Difference (95% CI) in LS mean (vs placebo): −0.7
  PANSS Total Score change from Baseline, LS mean (SE): −5.5 (0.71)
  PANSS Total Score change from Baseline, Mean (SD): −6.9 (7.77)
  PANSS Total Score change from Baseline, Median: −7.0
  PANSS Total Score, Difference (95% CI) in LS mean (vs placebo): −1.9
  NSFS, LS mean decrease from Baseline compared with placebo: −3.5
  PANSS Positive Subscale Score change from Baseline, LS mean (SE): −0.1 (0.21)
  PANSS Positive Subscale Score change from Baseline, Mean (SD): −0.6(2.37)
  PANSS Positive Subscale Score change from Baseline, Median: 0.0
  PANSS Positive Subscale Score, Difference (95% CI) in LS mean (vs placebo): −0.3
  PANSS negative subscale score, LS mean change from Baseline compared with placebo: −0.7
32 mg, Week 12, ITT
  NSFS Emotional Experience Score, Change from Baseline (LS Means [SEM]): −1.3 (0.13)
  NSFS Emotional Expression Score, Change from Baseline (LS Means [SEM]): −2.2 (0.16)
  NSFS, Change from Baseline (LS Means [SEM]): −3.5 (0.26)
  PANSS General Psychopathology Subscale, Change from Baseline (LS Means [SEM]): −2.0 (0.37)
  PANSS Negative Symptoms Subscale, Change from Baseline (LS Means [SEM]): −3.6 (0.27)
  PANSS Positive Symptoms Subscale, Change from Baseline (LS Means [SEM]): −0.1 (0.21)
  PANSS Total Score, Change from Baseline (LS Means [SEM]): −5.5 (0.71)
32 mg, Week 12, pooled
  Patients with high improvement in NSFS (magnitude of change >8): 5%
  Patients with moderate improvement in NSFS (magnitude of change 6-8): 18%
  Patients with moderate or high improvement in NSFS, total: 23%
